The source made the active and inactive calls.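 Rule for the calls: active = GFP ratio to DMSO above 1.5 or below 0.66; inactive = the rest.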
Columns and labels:
Assay in all cases: TOR pathway GFP reporter clone modulation in yeast – S. cerevisiae, GFP-tagged clone panel, flow cytometry (AID 504473);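 note: median GFP fluorescence of the cells measured by high-throughput flow cytometry; test concentration not given here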
Settings in all cases: S. cerevisiae GFP-tagged strains, 3 h
YJL144W = tested on: YJL144W
YJR148W = tested on: YJR148W
YKL086W = tested on: YKL086W
YKL103C = tested on: YKL103C
YKL119C = tested on: YKL119C
YKR039W = tested on: YKR039W
YKR093W = tested on: YKR093W
YKR094C = tested on: YKR094C
YLL026W = tested on: YLL026W
YLL039C = tested on: YLL039C
YLR058C = tested on: YLR058C
YLR109W = tested on: YLR109W
YLR142W = tested on: YLR142W
YLR185W = tested on: YLR185W
YLR237W = tested on: YLR237W
YLR287C-A = tested on: YLR287C-A
YLR367W = tested on: YLR367W
YML004C = tested on: YML004C
YML026C = tested on: YML026C
YML034W = tested on: YML034W
YML063W = tested on: YML063W
YML128C = tested on: YML128C
YMR105C = tested on: YMR105C
YMR120C = tested on: YMR120C
YMR251W-A = tested on: YMR251W-A
YMR307W = tested on: YMR307W
YNL015W = tested on: YNL015W
YNL068C = tested on: YNL068C
YNL112W = tested on: YNL112W
YNL142W = tested on: YNL142W
YNL214W = tested on: YNL214W
YNR001C = tested on: YNR001C
YOL052C-A = tested on: YOL052C-A
YOR038C = tested on: YOR038C
YOR063W = tested on: YOR063W
YOR136W = tested on: YOR136W
YOR173W = tested on: YOR173W
YOR182C = tested on: YOR182C
YOR371C = tested on: YOR371C
YOR375C = tested on: YOR375C
YPL111W = tested on: YPL111W
YPL131W = tested on: YPL131W
YPL150W = tested on: YPL150W
YPL220W = tested on: YPL220W
YPL265W = tested on: YPL265W
YPR132W = tested on: YPR132W
YPR145W = tested on: YPR145W
YPR184W = tested on: YPR184W

Q: For CO[C@H]1C[C@@H]2CC[C@@H](C)[C@@](O)(O2)C(=O)C(=O)N2CCCC[C@H]2C(=O)O[C@H]([C@H](C)C[C@@H]2CC[C@@H](O)[C@H](OC)C2)CC(=O)[C@H](C)/C=C(\C)[C@@H](O)[C@@H](OC)C(=O)[C@H](C)C[C@H](C)/C=C/C=C/C=C/1C, which GFP ratio to DMSO (YJL144W) is on record?
A: 2.03

Q: And the GFP ratio to DMSO (YJR148W)?
A: 3.38

Q: What about the GFP ratio to DMSO (YKL086W) of the same molecule?
A: 1.49 (inactive)

Q: What about the GFP ratio to DMSO (YKL103C) of the same molecule?
A: 2.8

Q: And the GFP ratio to DMSO (YKL119C)?
A: 1.03 (inactive)

Q: And the GFP ratio to DMSO (YKR039W)?
A: 12.7

Q: What about the GFP ratio to DMSO (YKR093W) of the same molecule?
A: 3.56

Q: What about the GFP ratio to DMSO (YKR094C) of the same molecule?
A: 0.484

Q: And the GFP ratio to DMSO (YLL026W)?
A: 2.05

Q: And the GFP ratio to DMSO (YLL039C)?
A: 1.77

Q: And the GFP ratio to DMSO (YLR058C)?
A: 1.04 (inactive)

Q: And the GFP ratio to DMSO (YLR109W)?
A: 1.43 (inactive)

Q: What about the GFP ratio to DMSO (YLR142W) of the same molecule?
A: 1.41 (inactive)

Q: What about the GFP ratio to DMSO (YLR185W) of the same molecule?
A: 0.705 (inactive)

Q: And the GFP ratio to DMSO (YLR237W)?
A: 0.864 (inactive)

Q: What about the GFP ratio to DMSO (YLR287C-A) of the same molecule?
A: 0.625

Q: And the GFP ratio to DMSO (YLR367W)?
A: 0.635

Q: What about the GFP ratio to DMSO (YML004C) of the same molecule?
A: 1.5 (inactive)

Q: And the GFP ratio to DMSO (YML026C)?
A: 0.289

Q: What about the GFP ratio to DMSO (YML034W) of the same molecule?
A: 1.04 (inactive)

Q: And the GFP ratio to DMSO (YML063W)?
A: 0.714 (inactive)

Q: And the GFP ratio to DMSO (YML128C)?
A: 2.56

Q: What about the GFP ratio to DMSO (YMR105C) of the same molecule?
A: 2.65

Q: What about the GFP ratio to DMSO (YMR120C) of the same molecule?
A: 0.612

Q: What about the GFP ratio to DMSO (YMR251W-A) of the same molecule?
A: 1.96

Q: What about the GFP ratio to DMSO (YMR307W) of the same molecule?
A: 0.685 (inactive)

Q: What about the GFP ratio to DMSO (YNL015W) of the same molecule?
A: 1.88

Q: And the GFP ratio to DMSO (YNL068C)?
A: 1.06 (inactive)

Q: What about the GFP ratio to DMSO (YNL112W) of the same molecule?
A: 0.73 (inactive)

Q: And the GFP ratio to DMSO (YNL142W)?
A: 15.6

Q: And the GFP ratio to DMSO (YNL214W)?
A: 1.06 (inactive)

Q: What about the GFP ratio to DMSO (YNR001C) of the same molecule?
A: 1.7

Q: What about the GFP ratio to DMSO (YOL052C-A) of the same molecule?
A: 2.68

Q: And the GFP ratio to DMSO (YOR038C)?
A: 1.21 (inactive)

Q: What about the GFP ratio to DMSO (YOR063W) of the same molecule?
A: 0.703 (inactive)

Q: And the GFP ratio to DMSO (YOR136W)?
A: 1.51

Q: And the GFP ratio to DMSO (YOR173W)?
A: 1.86

Q: What about the GFP ratio to DMSO (YOR182C) of the same molecule?
A: 0.576

Q: And the GFP ratio to DMSO (YOR371C)?
A: 1.06 (inactive)

Q: What about the GFP ratio to DMSO (YOR375C) of the same molecule?
A: 1.78

Q: What about the GFP ratio to DMSO (YPL111W) of the same molecule?
A: 2.16

Q: And the GFP ratio to DMSO (YPL131W)?
A: 0.781 (inactive)

Q: What about the GFP ratio to DMSO (YPL150W) of the same molecule?
A: 1.04 (inactive)

Q: What about the GFP ratio to DMSO (YPL220W) of the same molecule?
A: 0.887 (inactive)

Q: And the GFP ratio to DMSO (YPL265W)?
A: 3.22

Q: What about the GFP ratio to DMSO (YPR132W) of the same molecule?
A: 0.366

Q: And the GFP ratio to DMSO (YPR145W)?
A: 2.19

Q: And the GFP ratio to DMSO (YPR184W)?
A: 2.01

— PubChem BioAssay AID504473 (NMMLSC, 2011)
